# Experiments:
# NS3/4A-Tg mice = assay: Survival after TNF-α/D-Gal challenge, NS3/4A transgenic mice; format: in vivo, mouse
# Method: (§1) This Example describes several of the approaches used to induce hepatic injury in the NS3/4A-Tg mice and the techniques used to analyze the data. All NS3/4A-Tg or wild-type (Wt) mice used in these experiments were male and/or females between 6-12 weeks old. All groups of mice contained five to ten mice. Comparisons were done in age matched animals, excluding an age dependent difference when comparing groups. For the carbon tetrachloride (CCl4) treatment, CCl4 was diluted in 100 μL olive oil and administered intraperitoneal (i.p.) as a single dose to NS3/4A-Tg and Wt mice. Each mouse was treated with 10 mg (0.5 g/kg) CCl4 (Sigma). Serum from individual mice was collected at various time intervals (12, 24, 48, and 72 hours) after CCl4-treatment by retro-orbital bleeding. Serum alanine aminotransferase (ALT) values were measured to evaluate the extent of liver injury. […] Serum ALT values were measured to evaluate the extent of liver injury. […] Serum ALT values were measured to evaluate the extent of liver injury. […] Serum ALT values were measured to evaluate the extent of liver injury. […] Serum ALT values were measured to evaluate the extent of liver injury.
# (§2) SB203580 (Calbiochem) was dissolved/diluted in sterile dH2O and administered to mice intra orally (i.o.). […] The following Example teaches how the above data were statistically analyzed.
# wild-type mice = assay: Survival after TNF-α/D-Gal challenge, wild-type mice; format: in vivo, mouse
# Method: as §1, §2
# HCV = assay: Treatment of a patient with HCV related complications; format: in vivo; conditions: repeated course of treatment
# Method: A patient in need of treatment of HCV related complications is identified by routine methods. The patient is administered an amount of SB203580, based on the particular patient and the severity of the HCV symptoms. Following a repeated course of treatment, if required, the patient's HCV related symptoms are reduced. In some applications, the reduction of viral lode or another indicator for HCV infection is measured. The next example describes more transgenic organisms that contain the constructs described herein.
# [1] = tested on: NS3/4A-SP2/0 tumor cell line; assay: In vivo tumor growth assay in immunized Balb/c mice, NS3/4A-SP2/0 cells; conditions: 3 mg ribavirin with 100, 10 or 1 micrograms coNS3/4A, single immunization
# Method: To study whether the constructs described above were capable of eliciting a cell-mediated response against NS3, an in vivo tumor growth assay was performed. To this end, an SP2/0 tumor cell line (SP2/0-Ag14 myeloma cell line (H-2^d)) stably transfected with the NS3/4A gene was made. The SP2/0 cells were maintained in DMEM medium supplemented with 10% fetal calf serum (FCS; Sigma Chemicals, St. Louis, Mo.), 2 mM L-Glutamine, 10 mM HEPES, 100 U/ml Penicillin and 100 μg/ml Streptomycin, 1 mM non-essential amino acids, 50 μM β-mercaptoethanol, 1 mM sodium pyruvate (GIBCO-BRL, Gaithesburgh, Md.). The pcDNA3.1 plasmid containing the NS3/4A gene was linearized by BglII digestion. […]
# Transfected cells were cloned by limiting dilution and selected by addition of 800 μg geneticin (G418)/ml complete DMEM medium after 14 days. […] Bound murine serum antibodies were detected by an alkaline phosphatase conjugated goat anti-mouse IgG (Sigma cell products, Saint Louis, Mo. USA) followed by addition of the substrate pNPP (1 tablet/5 ml of 1 M Diethanolamin buffer with 0.5 mM MgCl2). […] Absorbance was then read at 405 nm.
# The in vivo growth kinetics of the SP2/0 and the NS3/4A-SP2/0 cell lines were then evaluated in Balb/c mice. […] Each day the size of the tumor was determined through the skin. […]
# [2] = tested on: NS3/4A-EL-4 tumor cell line; assay: Tumor challenge model with NS3/4A-EL-4 tumor cells; format: in vivo; conditions: C57BL/6 mice
# Source text: To define the in vivo functional anti-tumor effector cell population, CD4+ or CD8+ T cells were depleted in mice immunized with the coNS3/4A plasmid one week prior to, and during, challenge with the NS3/4A-EL-4 tumor cell line. […] Thus, NS3/4A-specific CD8+ CTLs are the major protective cell at the effector stage in the in vivo model for inhibition of tumor growth.
# The tumor challenge model was used to evaluate how effective the different immunogens were in priming a protective immunity against growth of NS3/4A-EL4 tumor cells in vivo. To ensure that the effectiveness of the priming event was studied, all mice were immunized only once. Vectors containing NS3/4A were able to rapidly prime protective immune responses as compared to the immunized with the empty pVAX plasmid (p<0.05, ANOVA; FIG. 10). […] The next example examines the prerequisites for priming of CD8+ CTL.
# To further clarify the prerequisites for priming of CD8+ CTL additional experiments were performed. First, C57BL/6 mice immunized with the NS3-derived CTL peptide were not protected against growth of NS3/4A-EL-4 tumors. […] To further characterize the priming event, groups of B cell (μMT; Kitamura D., et al., Nature, 350: 423-426 (1991)) or CD4 deficient C57BL/6 mice (Rahemtulla A et al., Nature, 353:180-184 (1991)) were immunized once with the coNS3/4A gene using gene gun, and challenged two weeks later (FIG. 10). […]
# [3] = 0.5 mg (25 mg/kg) i.o. thirty minutes prior to rm TNF-α/D-Gal
compound,measurement,setting,value
C[S+]([O-])c1ccc(-c2nc(-c3ccncc3)c(-c3ccc(F)cc3)[nH]2)cc1 (stereo not shown) [SB203580],TNF-alpha sensitivity phenotype (survival) of NS3/4A transgenic mice,NS3/4A-Tg mice; [3],reverted to TNF-alpha sensitive phenotype
same,impact on the survival rate of wild-type mice provided TNF-alpha,wild-type mice; [3],no significant
same,patient's HCV related symptoms,HCV,reduced
"NC(=O)c1ncn([C@@H]2O[C@H](CO)[C@@H](O)[C@H]2O)n1 [ribavirin, 1-β-D-ribofuranosyl-1,2,4-triazole-3-carboxamide]",effect of the adjuvant on the effectiveness of the initial coNS3/4A immunization (tumor size),[1],dramatically increased the effectiveness
"GAVQNEVTL (Artificial Peptide, NS3/4A H-2D Binding Peptide) [NS3-derived CTL peptide]",protection against growth of NS3/4A-EL-4 tumors,[2],not protected
TNF-α,survival of the lethal TNF-α dose,"NS3/4A-Tg mice; 5 μg/kg, NS3/4A-Tg mice",all NS3/4A-Tg mice survived
same,mice killed,"wild-type mice; 5 μg/kg, non-transgenic mice, within 24 hours",80%
